This note sets out measurements from ChEMBL document CHEMBL1201862, “PubChem BioAssay data set” (2004).

The structures appear in SMILES notation.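 Tested at 5 concentrations; 48 h exposure; 96-well plates; endpoints linearly interpolated, else capped at highest concentration. GI50 marks 50% less growth.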 The source made the active and inactive calls. No stated cut-off is given here; in the data, active = GI50 up to about 1.1 µM and inactive = higher. Some results are limits rather than exact numbers.

Assay in all cases: DTP human tumour cell line panel, 48 h
In assay [1] the test system is ACHN.
In assay [2] the test system is BT-549.
Assay [3] concerns EKVX.
Assay [4] deals with HCT-15.
Assay [5] deals with HOP-92.
Assay [6] relates to K562.
The test system of assay [7] is KM12.
Assay [8] concerns M14.
The test system of assay [9] is Malme-3M.
Assay [10] deals with NCI-H460.
For assay [11], the system named is OVCAR-4.
Assay [12] has as its system PC-3.
Assay [13] has as its system SF-295.
In assay [14] the test system is SF-539.
For assay [15], the system named is SK-MEL-2.
Assay [16] has as its system SK-OV-3.
Assay [17] deals with TK-10.
The subject of assay [18] is UO-31.

For orientation: GI50 means the concentration at which growth is held to half of that of the control. On to `COc1cc2cc(C(=O)N3C[C@H](CCl)c4c3cc(N)c3ccccc43)[nH]c2c(OC)c1OC`, for which the GI50 in [1] is < 0.005 µM (active); in [2], 1.38 µM (inactive); in [3], 0.0103 µM (active); in assay [4] it was 0.005 µM; in assay [5] it was 0.0489 µM (active); in assay [6], 2.39 µM (inactive). Also, the GI50 was 0.00187 µM (active) in [7]; 0.502 µM (active) in assay [8]; 0.005 µM (active) in [9]; 0.0239 µM (active) in [10]; > 10 µM (inactive) in assay [11]; 0.0507 µM (active) in assay [12]. Also, the GI50 in [13] was 2.61 µM (inactive); in assay [14] it was 0.0284 µM (active); in assay [15], 2.05 µM (inactive); in [16], 0.22 µM (active); in assay [17], 0.005 µM (active); in assay [18] it was 0.005 µM (active).

With `CCCCCCCCCCCCCCCCCCNc1ccn(C2OC(CO)C(OP(=O)(O)OCC(O)COP(=O)(O)OCC3OC(n4cc(F)c(NCCCCCCCCCCCCCCCCCC)nc4=O)CC3O)C2O)c(=O)n1` (stereo not drawn), the GI50 in assay [1] is > 50 µM (inactive); in assay [2] it was > 50 µM (inactive); in assay [3], > 50 µM (inactive); in [4] it was > 50 µM; in [5] it was > 50 µM (inactive); in assay [6], > 50 µM (inactive). In addition, the GI50 in assay [7], in assay [8], in assay [9], in assay [10], in assay [11] and in assay [12] was > 50 µM (inactive) in each case. Moreover, the GI50 in [13], in assay [14], in [15], in [16], in assay [17] and in assay [18] was > 50 µM (inactive) each time.

For the compound `O=C(OCCN=c1c2ccccc2ccc2ccccc12)c1ccc([N+](=O)[O-])cc1`, the GI50 in [1] is > 100 µM (inactive); in assay [2], > 100 µM (inactive); in assay [3], > 100 µM (inactive); in assay [4] it was > 100 µM; in assay [5], > 100 µM (inactive); in assay [6] it was > 100 µM (inactive). In addition, the GI50 in [7], in assay [8], in assay [9], in assay [10], in assay [11] and in assay [12] was > 100 µM (inactive) throughout. Besides, the GI50 in assay [13], in assay [14], in [15], in [16], in assay [17] and in [18] was > 100 µM (inactive) each time.

In the case of `COc1cc(/C=C/c2cc(/C=C/c3ccc(O)c(OC)c3)oc(=O)c2)ccc1O`, the GI50 in assay [1] is 3.26 µM (inactive); in assay [2], 3.23 µM (inactive); in [3], 3.1 µM (inactive); in assay [4], 3.12 µM; in assay [5] it was 4.67 µM (inactive); in [6], 4.43 µM (inactive). Moreover, the GI50 in [7] is 3.18 µM (inactive); in assay [8] it was 5.09 µM (inactive); in assay [9], 2.66 µM (inactive); in assay [10] it was 2.29 µM (inactive); in assay [11], 3.84 µM (inactive); in assay [12] it was 3.91 µM (inactive). In addition, the GI50 was 2.74 µM (inactive) in assay [13]; 6.79 µM (inactive) in assay [14]; 3.98 µM (inactive) in [15]; 9.04 µM (inactive) in assay [16]; 3.78 µM (inactive) in assay [17]; 3.01 µM (inactive) in assay [18].

Regarding `NNC(=O)CCC(NS(=O)(=O)c1ccc(Cl)cc1)C(=O)NN` (stereo not drawn), the GI50 in [1] is > 100 µM (inactive); in [2] it was > 100 µM (inactive); in assay [3] it was > 100 µM (inactive); in assay [4], > 100 µM; in assay [5], > 100 µM (inactive); in assay [6], > 100 µM (inactive). Moreover, the GI50 in [7], in assay [8], in assay [9], in assay [10], in assay [11] and in assay [12] was > 100 µM (inactive) in each case. In addition, the GI50 in assay [13], in [14], in assay [15], in assay [16], in assay [17] and in [18] was > 100 µM (inactive) in each case.

Regarding `C/C(=N\Nc1cc(CN2CCCC2)c(-c2ccc(Cl)cc2)nn1)C(=O)O`, the GI50 in assay [1] is > 100 µM (inactive); in assay [2], > 100 µM (inactive); in assay [3], > 100 µM (inactive); in assay [4] it was > 100 µM; in assay [5], > 100 µM (inactive); in assay [6] it was > 100 µM (inactive). Besides, the GI50 in assay [7], in [8], in [9], in assay [10], in assay [11] and in assay [12] was > 100 µM (inactive) in each case. The GI50 in [13], in assay [14], in assay [15], in assay [16], in assay [17] and in [18] was > 100 µM (inactive) in each case.

Turning to `CC(C)(C)OC(=O)NCCNCCNc1ccccc1`, the GI50 in assay [1] is > 100 µM (inactive); in [2], > 100 µM (inactive); in [3], > 100 µM (inactive); in assay [4], > 100 µM; in assay [5], > 100 µM (inactive); in [6] it was > 100 µM (inactive). In addition, the GI50 in assay [7], in assay [8], in assay [9], in [10], in assay [11] and in [12] was > 100 µM (inactive) throughout. In addition, the GI50 in assay [13], in assay [14], in assay [15], in [16], in assay [17] and in assay [18] was > 100 µM (inactive) throughout.

With `O=C(Oc1cncc(Cl)c1)c1cc2ccccc2sc1=O`, the GI50 in [1] was 86.1 µM (inactive); in assay [2] it was 57.7 µM (inactive); in assay [3], > 100 µM (inactive); in [4] it was 38.5 µM; in assay [5], 71.4 µM (inactive); in assay [6], 31.7 µM (inactive). Besides, the GI50 is 40.9 µM (inactive) in assay [7]; 33.3 µM (inactive) in [8]; 34.2 µM (inactive) in [9]; 82.8 µM (inactive) in assay [10]; 73.6 µM (inactive) in [11]; 33 µM (inactive) in assay [12]. For the same compound, the GI50 in assay [13] was 96.2 µM (inactive); in [14], 18.5 µM (inactive); in assay [15], 24.7 µM (inactive); in [16] it was > 100 µM (inactive); in [17] it was 76.7 µM (inactive); in assay [18], > 100 µM (inactive).

On to `CCCC(=O)OCC(COC(=O)CCC)OC(=O)CCC` [TRIBUTYRIN], for which the GI50 in [1] was 96.2 µM (inactive); in [2], 97.3 µM (inactive); in [3], > 100 µM (inactive); in assay [4], > 100 µM; in assay [5] it was > 100 µM (inactive); in assay [6], 64.7 µM (inactive). The GI50 in [7] is > 100 µM (inactive); in assay [8] it was 58.5 µM (inactive); in assay [9] it was 41.2 µM (inactive); in [10], 99.8 µM (inactive); in assay [11], > 100 µM (inactive); in [12] it was 99.3 µM (inactive). In addition, the GI50 in assay [13] was > 100 µM (inactive); in [14], 62.8 µM (inactive); in assay [15], 24.2 µM (inactive); in [16], 61.2 µM (inactive); in [17], 27.3 µM (inactive); in assay [18], 34.4 µM (inactive).

Turning to `Cc1ccccc1C(O)(c1nccn1C)c1nccn1C`, the GI50 in assay [1] is > 100 µM (inactive); in assay [2] it was > 100 µM (inactive); in assay [3], > 100 µM (inactive); in assay [4] it was > 100 µM; in assay [5], > 100 µM (inactive); in assay [6] it was > 100 µM (inactive). Further, the GI50 in [7], in assay [8], in assay [9], in assay [10], in assay [11] and in assay [12] was > 100 µM (inactive) in each case. Besides, the GI50 in assay [13], in assay [14], in assay [15], in assay [16], in [17] and in assay [18] was > 100 µM (inactive) throughout.

Take `Fc1ccc(C(OCCN2CC3CC2CN3CCCc2ccccc2)c2ccc(F)cc2)cc1` (stereo not drawn): the GI50 in assay [1] is 11.5 µM (inactive); in assay [2] it was 11.8 µM (inactive); in assay [3] it was 6.01 µM (inactive); in assay [4] it was 4.63 µM; in assay [5], 11.9 µM (inactive); in assay [6] it was 3.11 µM (inactive). The GI50 in assay [7] is 4.85 µM (inactive); in assay [8], 2.02 µM (inactive); in [9], 2.93 µM (inactive); in [10], 4.48 µM (inactive); in [11], 8.95 µM (inactive); in [12] it was 5.98 µM (inactive). Moreover, the GI50 in assay [13] was 6.19 µM (inactive); in assay [14] it was 2.37 µM (inactive); in [15], 9.95 µM (inactive); in [16], 15 µM (inactive); in [17], 11.2 µM (inactive); in assay [18], 12.3 µM (inactive).
